EC50 data for four molecules are collected here from US9963496B2, “Stable glucagon analogues and use for treatment of hypoglycaemia” (Novo Nordisk A/S, priority 2014, dated 2018).

*1 amine or outer side, *2 acyl side, *3 side chain or, on linkers, in order; H or OH if unused. Where a SMILES comes first, the peptide text is derived from it. Side-chain parts run from the residue outwards. [ ]: non-standard residue; d: D form. The star is where a group is joined. γGlu = O=C(O)[C@H](CCC(=O)[*:2])N[*:1]; Desaminohistidyl = O=C(CCc1c[nH]cn1)*; Aib = CC(C)(N)C(=O)O

This assay has as its target T1, human glucagon receptor (Homo sapiens, UniProt P47871).
T1 construct: expressed in transfected cells; host or cells: BHK cells, clone BHK hGCGR A3*25; isolated membranes
Description: Assay (I)(b): glucagon receptor activation, CRE luciferase reporter gene assay in BHK cells. The following applies: BHK cells expressing human glucagon receptor and CRE luciferase, 3 h incubation; read-out: EC50 hGlucagonR. It counts as cell-based. Put shortly: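 BHK570 cells stably expressing the human glucagon receptor and CRE-luciferase, 5×10 EE3 cells/well in DMEM with 2% ovalbumin and 0.2% Pluronic F-68. Compounds at final 1×10 EE-6 to 1×10 EE-13 M, 3 h at 37° C. Luminescence read; EC50 by four-parameter fit.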
On the technique in general: A reporter such as luciferase makes a cellular process visible.

T1 sequence (P47871 26-477): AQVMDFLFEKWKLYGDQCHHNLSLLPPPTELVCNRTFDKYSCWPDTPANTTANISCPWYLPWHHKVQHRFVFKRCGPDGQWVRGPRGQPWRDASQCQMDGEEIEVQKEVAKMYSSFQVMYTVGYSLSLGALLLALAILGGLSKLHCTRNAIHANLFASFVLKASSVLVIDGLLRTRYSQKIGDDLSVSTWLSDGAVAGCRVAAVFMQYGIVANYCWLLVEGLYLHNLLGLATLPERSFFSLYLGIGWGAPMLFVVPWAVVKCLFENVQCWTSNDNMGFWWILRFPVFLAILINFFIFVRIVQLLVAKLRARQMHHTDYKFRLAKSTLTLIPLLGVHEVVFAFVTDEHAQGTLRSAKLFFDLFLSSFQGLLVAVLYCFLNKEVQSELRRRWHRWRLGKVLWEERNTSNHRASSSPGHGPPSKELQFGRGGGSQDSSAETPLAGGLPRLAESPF

For the molecule `CC(=O)N[C@@H](CCC(=O)N[C@@H](CCC(=O)N[C@@H](CCC(=O)N[C@@H](CCC(=O)NCCCC[C@H](NC(=O)[C@@H](NC(=O)[C@H](Cc1ccccc1)NC(=O)[C@H](CC(=O)O)NC(=O)[C@H](CCC(N)=O)NC(=O)[C@H](C)NC(=O)[C@H](CCCNC(=N)N)NC(=O)[C@H](CCCNC(=N)N)NC(=O)[C@H](CC(C)C)NC(=O)[C@H](CC(=O)O)NC(=O)[C@H](CC(C)C)NC(=O)[C@H](Cc1ccc(O)cc1)NC(=O)[C@H](CCCCN)NC(=O)[C@H](CO)NC(=O)[C@H](Cc1ccc(O)cc1)NC(=O)[C@H](CC(=O)O)NC(=O)[C@H](CO)NC(=O)[C@@H](NC(=O)[C@H](Cc1ccccc1)NC(=O)[C@@H](NC(=O)CNC(=O)[C@H](Cc1c[nH]cn1)NC(=O)C(C)(C)NC(=O)CCc1c[nH]cn1)[C@@H](C)O)[C@@H](C)O)C(C)C)C(=O)N[C@@H](Cc1c[nH]c2ccccc12)C(=O)N[C@@H](CC(C)C)C(=O)N[C@@H](CC(C)C)C(=O)N[C@@H](CO)C(=O)N[C@H](C(=O)O)[C@@H](C)O)C(=O)O)C(=O)O)C(=O)O)C(=O)O` [Example 1, N^ϵ24-[(4S)-4-[[(4S)-4-[[(4S)-4-[[(4S)-4-acetamido-4-carboxybutanoyl]amino]-4-carboxybutanoyl]amino]-4-carboxybutanoyl]amino]-4-carboxybutanoyl]-[Imp1, Aib2, His3, Leu16, Lys24, Leu27, Ser28]-Glucagon] (Desaminohistidyl-[Aib]HGTFTSDYSKYLDLRRAQDFVK([γGlu-γGlu-γGlu-γGlu-Ac])WLLST-OH), the EC50 (in general, the midpoint of the concentration-response curve) amounted to 1 pM. For `CC(=O)N[C@@H](CCC(=O)N[C@@H](CCC(=O)N[C@@H](CCC(=O)N[C@@H](CCC(=O)NCCCC[C@H](NC(=O)[C@H](CC(C)C)NC(=O)[C@H](CC(C)C)NC(=O)[C@H](Cc1c[nH]c2ccccc12)NC(=O)[C@H](C)NC(=O)[C@@H](NC(=O)[C@H](Cc1ccccc1)NC(=O)[C@H](CC(=O)O)NC(=O)[C@H](CCC(N)=O)NC(=O)[C@H](C)NC(=O)[C@H](CCCNC(=N)N)NC(=O)[C@H](CCCNC(=N)N)NC(=O)[C@H](CO)NC(=O)[C@H](CCC(=O)O)NC(=O)[C@H](CC(C)C)NC(=O)[C@H](Cc1ccc(O)cc1)NC(=O)[C@H](CCCCN)NC(=O)[C@H](CO)NC(=O)[C@H](Cc1ccc(O)cc1)NC(=O)[C@H](CC(=O)O)NC(=O)[C@H](CO)NC(=O)[C@@H](NC(=O)[C@H](Cc1ccccc1)NC(=O)[C@@H](NC(=O)CNC(=O)[C@H](Cc1c[nH]cn1)NC(=O)C(C)(C)NC(=O)CCc1c[nH]cn1)[C@@H](C)O)[C@@H](C)O)C(C)C)C(=O)N[C@H](C(=O)O)[C@@H](C)O)C(=O)O)C(=O)O)C(=O)O)C(=O)O` [Example 4, N^ϵ28-[(4S)-4-[[(4S)-4-[[(4S)-4-[[(4S)-4-acetamido-4-carboxybutanoyl]amino]-4-carboxybutanoyl]amino]-4-carboxybutanoyl]amino]-4-carboxybutanoyl]-[Imp1, Aib2, His3, Glu15, Ala24, Leu27, Lys28]-Glucagon] (Desaminohistidyl-[Aib]HGTFTSDYSKYLESRRAQDFVAWLLK([γGlu-γGlu-γGlu-γGlu-Ac])T-OH), the EC50 turned out to be 5 pM. In the case of `CC(=O)N[C@@H](CCC(=O)N[C@@H](CCC(=O)N[C@@H](CCC(=O)N[C@@H](CCC(=O)NCCCC[C@H](NC(=O)[C@@H](NC(=O)[C@H](Cc1ccccc1)NC(=O)[C@H](CCC(=O)O)NC(=O)[C@H](CCC(N)=O)NC(=O)[C@H](C)NC(=O)[C@H](CCCNC(=N)N)NC(=O)[C@H](CCCNC(=N)N)NC(=O)[C@H](CC(C)C)NC(=O)[C@H](CC(=O)O)NC(=O)[C@H](CC(C)C)NC(=O)[C@H](Cc1ccc(O)cc1)NC(=O)[C@H](CCCCN)NC(=O)[C@H](CO)NC(=O)[C@H](Cc1ccc(O)cc1)NC(=O)[C@H](CC(=O)O)NC(=O)[C@H](CO)NC(=O)[C@@H](NC(=O)[C@H](Cc1ccccc1)NC(=O)[C@@H](NC(=O)CNC(=O)[C@H](Cc1c[nH]cn1)NC(=O)[C@H](CO)NC(=O)CCc1c[nH]cn1)[C@@H](C)O)[C@@H](C)O)C(C)C)C(=O)N[C@@H](Cc1c[nH]c2ccccc12)C(=O)N[C@@H](CC(C)C)C(=O)N[C@@H](CC(C)C)C(=O)N[C@@H](CO)C(=O)N[C@H](C(=O)O)[C@@H](C)O)C(=O)O)C(=O)O)C(=O)O)C(=O)O` [Example 8, N^ϵ24-[(4S)-4-[[(4S)-4-[[(4S)-4-[[(4S)-4-acetamido-4-carboxybutanoyl]amino]-4-carboxybutanoyl]amino]-4-carboxybutanoyl]amino]-4-carboxybutanoyl]-[Imp1, His3, Leu16, Glu21, Lys24, Leu27, Ser28]-Glucagon] (Desaminohistidyl-SHGTFTSDYSKYLDLRRAQEFVK([γGlu-γGlu-γGlu-γGlu-Ac])WLLST-OH) it was 1 pM; in that of `CC(=O)N[C@@H](CCC(=O)N[C@@H](CCC(=O)N[C@@H](CCC(=O)N[C@@H](CCC(=O)NCCCC[C@H](NC(=O)[C@@H](NC(=O)[C@H](Cc1ccccc1)NC(=O)[C@H](CC(=O)O)NC(=O)[C@H](CCC(N)=O)NC(=O)[C@H](C)NC(=O)[C@H](CCCNC(=N)N)NC(=O)[C@H](CCCNC(=N)N)NC(=O)[C@@H](NC(=O)[C@H](CC(=O)O)NC(=O)[C@H](CC(C)C)NC(=O)[C@H](Cc1ccc(O)cc1)NC(=O)[C@H](CCCCN)NC(=O)[C@H](CO)NC(=O)[C@H](Cc1ccc(O)cc1)NC(=O)[C@H](CC(=O)O)NC(=O)[C@H](CO)NC(=O)[C@@H](NC(=O)[C@H](Cc1ccccc1)NC(=O)[C@@H](NC(=O)CNC(=O)[C@H](Cc1c[nH]cn1)NC(=O)C(C)(C)NC(=O)CCc1c[nH]cn1)[C@@H](C)O)[C@@H](C)O)C(C)C)C(C)C)C(=O)N[C@@H](Cc1c[nH]c2ccccc12)C(=O)N[C@@H](CC(C)C)C(=O)N[C@@H](CC(C)C)C(=O)N[C@@H](CO)C(=O)N[C@H](C(=O)O)[C@@H](C)O)C(=O)O)C(=O)O)C(=O)O)C(=O)O` [Example 10, N^ϵ24-[(4S)-4-[[(4S)-4-[[(4S)-4-[[(4S)-4-acetamido-4-carboxybutanoyl]amino]-4-carboxybutanoyl]amino]-4-carboxybutanoyl]amino]-4-carboxybutanoyl]-[Imp1, Aib2, His3, Val16, Lys24, Leu27, Ser28]-Glucagon] (Desaminohistidyl-[Aib]HGTFTSDYSKYLDVRRAQDFVK([γGlu-γGlu-γGlu-γGlu-Ac])WLLST-OH), 2 pM.
